Counter-ions that a name gives are not always drawn.

For one experiment, the target named is T1, Farnesyltransferase (FTase) (Bos taurus, UniProt P29702+P49355).
T1 construct: precipitation from a beef brain homogenate; from tissue; host or cells: bovine brain
T1 sequence (P49355 whole entry, one chain of several): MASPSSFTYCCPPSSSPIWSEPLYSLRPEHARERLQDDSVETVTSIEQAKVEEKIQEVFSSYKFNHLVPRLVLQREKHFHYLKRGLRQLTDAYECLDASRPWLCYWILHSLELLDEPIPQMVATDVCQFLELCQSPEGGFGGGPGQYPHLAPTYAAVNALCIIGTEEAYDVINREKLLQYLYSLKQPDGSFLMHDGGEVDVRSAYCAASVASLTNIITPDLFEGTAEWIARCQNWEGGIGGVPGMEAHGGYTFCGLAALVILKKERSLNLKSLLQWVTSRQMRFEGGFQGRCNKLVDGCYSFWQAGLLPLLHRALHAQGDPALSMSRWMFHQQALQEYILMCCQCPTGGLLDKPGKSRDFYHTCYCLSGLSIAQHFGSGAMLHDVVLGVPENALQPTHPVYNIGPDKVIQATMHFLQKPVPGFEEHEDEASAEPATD
In words: Farnesyltransferase inhibition (scintillation proximity assay, [3H]-FPP / biotin-K-ras peptide). It is filed as biochemical, bovine.
Conditions: not given
An outline of the steps: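 Read-out: [3H]-FPP prenylation of a biotinylated K-ras peptide by SPA, measured 1 h after quenching. Enzyme: FTase purified from bovine brain (ammonium sulfate cut, DEAE Sepharose), free of GGTase I and II. Test compounds in ethanol, diluted 10-fold into the reaction.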
Consider `Cc1ccccc1-c1cc(C(OCc2cc([N+](=O)[O-])cc3c2OCOC3)c2cncn2C)ccc1C#N.Cl` (centres unmarked) [Example 168], for which the % Inhibition (commonly the change of the read-out against control, counted positive when it falls) at 10^−6M amounted to 96%.
Same read-out and setting: as for `Cc1ccccc1-c1cc(C(OCc2noc(-c3cccc(C(F)(F)F)c3)n2)c2cncn2C)ccc1C#N.Cl` (centres unmarked) [Example 169, 2′-methyl-5-((1,1-methyl-1H-imidazol-5-yl)((5-(3-(trifluoromethyl)phenyl)-1,2,4-oxadiazol-3-yl)methoxy)methyl)(1,1′-biphenyl)-2-carbonitrile hydrochloride], the figure is 70%; as for `Cc1ccccc1-c1cc(C(OCc2c(C)ccc3ccccc23)c2cncn2C)ccc1C#N.Cl` (centres unmarked) [Example 178], 90%.
The same measure, in the same setting: as for `Cc1ccccc1-c1cc(C(OCc2c(C)c(C)cc(C)c2C)c2cncn2C)ccc1C#N.Cl` (centres unmarked) [Example 179], the figure is 93%; as for `Cc1ccccc1-c1cc(C(OCc2ccc(OC(F)(F)F)cc2)c2cncn2C)ccc1C#N.Cl` (centres unmarked) [Example 180], 95%.

Staying with this experiment, now noted: compound at 10^−6 M; bovine FTase, 37° C., 30 minutes.
Regarding `Cc1ccccc1-c1cc(C(OCc2ccc(I)cc2)c2cncn2C)ccc1C#N` (centres unmarked) [Example 160, 5-(((4-iodobenzyl)oxy)(1-methyl-1H-imidazol-5-yl)methyl)-2′-methyl(1,1′-biphenyl)-2-carbonitrile hydrochloride], the inhibition (commonly how much of the control response was suppressed) at 1 µM amounted to 96%.
The molecule `Cc1ccccc1-c1cc(C(OCc2ccc(-c3ccccc3)cc2)c2cncn2C)ccc1C#N` (centres unmarked) [Example 161, 5-(((1,1′-biphenyl)-4-ylmethoxy)(1-methyl-1H-imidazol-5-yl)methyl)-2′-methyl(1,1′-biphenyl)-2-carbonitrile hydrochloride] returned an inhibition at 1 µM of 96%.
Same read-out and setting: as for `Cc1ccccc1-c1cc(C(OCc2csc(-c3ccc(Cl)cc3)n2)c2cncn2C)ccc1C#N` (centres unmarked) [Example 162, 5-(((2-(4-chlorophenyl)-1,3-thiazol-4-yl)methoxy)(1-methyl-1H-imidazol-5-yl)methyl)-2′-methyl(1,1′-biphenyl)-2-carbonitrile hydrochloride], the figure is 94%.
For `COc1ccccc1-c1nc(COC(c2ccc(C#N)c(-c3ccccc3C)c2)c2cncn2C)no1` (centres unmarked) [Example 163, 5-(((5-(2-methoxyphenyl)-1,2,4-oxadiazol-3-yl)methoxy)(1-methyl-1H-imidazol-5-yl)methyl)-2′-methyl(1,1-biphenyl)-2-carbonitrile hydrochloride], the inhibition at 1 µM came to 84%.
Still for that read-out and setting: as for `Cc1ccccc1-c1cc(C(OCc2ccc(Cl)cc2[N+](=O)[O-])c2cncn2C)ccc1C#N` (centres unmarked) [Example 164, 5-(((4-chloro-2-nitrobenzyl)oxy)(1-methyl-1H-imidazol-5-yl)methyl)-2′-methyl(1,1′-biphenyl)-2-carbonitrile hydrochloride], the figure is 99%; as for `COc1ccc(C(C)=O)cc1COC(c1ccc(C#N)c(-c2ccccc2C)c1)c1cncn1C` (centres unmarked) [Example 170, 5-(((5-acetyl-2-methoxybenzyl)oxy)(1-methyl-1H-imidazol-5-yl)methyl)-2′-methyl(1,1′-biphenyl)-2-carbonitrile hydrochloride], 85%.
On the same count and under the same terms, as for `Cc1ccccc1-c1cc(C(OCc2noc(-c3ccccc3)n2)c2cncn2C)ccc1C#N` (centres unmarked) [Example 171, 2′-methyl-5-((1-methyl-1H-imidazol-5-yl)((5-phenyl-1,2,4-oxadiazol-3-yl)methoxy)methyl)(1,1′-biphenyl)-2-carbonitrile hydrochloride], the figure is 75%; as for `COc1ccc(-c2nc(COC(c3ccc(C#N)c(-c4ccccc4C)c3)c3cncn3C)no2)cc1` (centres unmarked) [Example 172, 5-(((5-(4-methoxyphenyl)-1,2,4-oxadiazol-3-yl)methoxy)(1-methyl-1H-imidazol-5-yl)methyl)-2′-methyl(1,1′-biphenyl)-2-carbonitrile hydrochloride], 85%; as for `COc1cccc(-c2nc(COC(c3ccc(C#N)c(-c4ccccc4C)c3)c3cncn3C)no2)c1` (centres unmarked) [Example 173, 5-(((5-(3-methoxyphenyl)-1,2,4-oxadiazol-3-yl)methoxy)(1-methyl-1H-imidazol-5-yl)methyl)-2′-methyl(1,1′-biphenyl)-2-carbonitrile hydrochloride], 80%.
The same measure, in the same setting: the same measure for `Cc1ccccc1-c1cc(C(OCc2csc(-c3ccc(C(F)(F)F)cc3)n2)c2cncn2C)ccc1C#N` (centres unmarked) [Example 175, 2′-methyl-5-((1-methyl-1H-imidazol-5-yl)((2-(4-(trifluoromethyl)phenyl)-1,3-thiazol-4-yl)methoxy)methyl)(1,1′-biphenyl)-2-carbonitrile hydrochloride]: 75%; for `Cc1cc(COC(c2ccc(C#N)c(-c3ccccc3C)c2)c2cncn2C)no1` (centres unmarked) [Example 177, 2′-methyl-5-((1-methyl-1H-imidazol-5-yl)((5-methyl-3-isoxazolyl)methoxy)methyl)(1,1′-biphenyl)-2-carbonitrile hydrochloride]: 77%.
Molecule `Cc1ccccc1-c1cc(C(OCc2cnc(Cl)c(Cl)c2)c2cncn2C)ccc1C#N` (centres unmarked) [Example 181, 5-(((5,6-dichloro-3-pyridinyl)methoxy)(1-methyl-1H-imidazol-5-yl)methyl)-2′-methyl(1,1′-biphenyl)-2-carbonitrile hydrochloride] yielded an inhibition at 1 µM of 93%.
Same read-out and setting: the same measure for `Cc1ccccc1-c1cc(C(OCc2ncc(C(F)(F)F)cc2Cl)c2cncn2C)ccc1C#N` (centres unmarked) [Example 182, 5-(((3-chloro-5-(trifluoromethyl)-2-pyridinyl)methoxy)(1-methyl-1H-imidazol-5-yl)methyl)-2′-methyl(1,1′-biphenyl)-2-carbonitrile hydrochloride]: 89%.
Same read-out and setting: the same measure for `Cc1ccccc1-c1cc(C(OCc2ccc3ccccc3c2)c2cncn2C)ccc1C#N` (centres unmarked) [Example 183, 2′-methyl-5-((1-methyl-1H-imidazol-5-yl)(2-naphthylmethoxy)methyl)(1,1′-biphenyl)-2-carbonitrile hydrochloride]: 90%.
The same measure, in the same setting: as for `Cc1ccccc1-c1cc(C(OCc2cccc(Br)c2)c2cncn2C)ccc1C#N` (centres unmarked) [Example 184, 5-(((3-bromobenzyl)oxy)(1-methyl-1H-imidazol-5-yl)methyl)-2′-methyl(1,1′-biphenyl)-2-carbonitrile hydrochloride], the figure is 95%.
Molecule `Cc1ccccc1-c1cc(C(OCc2ccccc2Br)c2cncn2C)ccc1C#N` (centres unmarked) [Example 185, 5-(((2-bromobenzyl)oxy)(1-methyl-1H-imidazol-5-yl)methyl)-2′-methyl(1,1′-biphenyl)-2-carbonitrile hydrochloride] gave an inhibition at 1 µM of 85%.
On the same count and under the same terms, as for `Cc1ccccc1-c1cc(C(OCc2c(F)cccc2F)c2cncn2C)ccc1C#N` (centres unmarked) [Example 186, 5-(((2,6-difluorobenzyl)oxy)(1-methyl-1H-imidazol-5-yl)methyl)-2′-methyl(1,1′-biphenyl)-2-carbonitrile hydrochloride], the figure is 85%.
Still for that read-out and setting: the same measure for `Cc1ccccc1-c1cc(C(OCc2ccc(C(F)(F)F)cc2F)c2cncn2C)ccc1C#N` (centres unmarked) [Example 187, 5-(((2-fluoro-4-(trifluoromethyl)benzyl)oxy)(1-methyl-1H-imidazol-5-yl)methyl)-2′-methyl(1,1′-biphenyl)-2-carbonitrile hydrochloride]: 93%.

The values are drawn from patent US20020019527A1 (priority 2000, published 2002).
